# Test results published in patent US20220056037A1 (SPV THERAPEUTICS INC., priority 2018, published 2022).
# What was measured:
# Assay in all cases: 2D cell proliferation assay (CellTiter-Blue)
# Type in all cases: cell-based
# LIXFH Hep G2 = conditions: Homo sapiens, HepG2, 72 h; cell line LIXFH Hep G2; three days of treatment; read-out: IC (abs. IC50)
# Protocol: (§1) Viability of the cells was analyzed by using the CellTiter-Blue® Cell Viability Assay (Promega), and was performed according to manufacturer's instructions. Briefly, cells were harvested from exponential phase cultures (Chapter 6.6), counted and plated in 96-well flat-bottom microtiter plates at a cell density of 4,000-60,000 cells/well in a volume of 140 μl per well. After a 24 hours recovery period, 10 μL cell culture medium (six control wells/plate) or culture medium with test compound were added (Chapter 6.2). The compounds were applied at five concentrations in full-log increments up to 100 μM in duplicate. Cultures were incubated at 37° C. and 5% CO2 in a humidified atmosphere for another three days. After three days of treatment, 20 μl/well CellTiter-Blue® reagent was added. Following incubation with CellTiter-Blue® reagent for up to four hours, fluorescence (FU) was measured by using the Enspire Multimode Plate Reader (excitation λ=570 nm, emission λ=600 nm). For calculations, the mean values of duplicate/sextuplicate (untreated control) data were used.
# (§2) Drug effects were expressed in terms of the percentage of the fluorescence signal, obtained by comparison of the mean signal in the treated wells with the mean signal of the untreated controls (expressed by the test-versus-control value, T/C-value [%]):
# (§3) IC values are reported as relative IC50 values and absolute IC50 and IC70 values. […] The absolute IC70 value gives the concentration of the test compound that achieves T/C=30%. The relative IC50 value is the concentration of test compound that gives a response half way between the top and bottom plateau of the sigmoidal concentration-response curve (inflection point of the curve). Calculation was done by 4parameter non-linear curve fit (Oncotest Data Warehouse Software).
# (§4) If an IC50 or IC70 value could not be determined within the examined dose range (because a compound was either too active or lacked activity), the lowest or highest concentration studied was used for calculation of the geometric mean value.
# (§5) The overall potency of a compound was determined by the geometric mean IC50/IC70 values of all individual IC50/IC70 values. In the heatmap representation of IC50 and IC70 values, the distribution of the IC50 or IC70 values obtained for a test compound in the individual cell lines is given in relation to the geometric mean […] or IC70 value, obtained over all PDX models tested. The individual IC values range from 1/32-fold geometric mean IC (corresponding to very potent compound activity or high tumor sensitivity) to 32-fold geometric mean IC (corresponding to lack of compound activity or tumor resistance). The heatmap presentation, therefore, represents an antiproliferative “fingerprint” profile of a test compound.
# LEXFAL MOLT-4 = conditions: Homo sapiens, 72 h; cell line LEXFAL MOLT-4; three days of treatment; read-out: IC (abs. IC50)
# Protocol: as §1, §2, §3, §4, §5
# MMXF U-266 = conditions: Homo sapiens, 72 h; cell line MMXF U-266; three days of treatment; read-out: IC (abs. IC50)
# Protocol: as §1, §2, §3, §4, §5
# PRXF VCap = conditions: Homo sapiens, 72 h; cell line PRXF VCap; three days of treatment; read-out: IC (abs. IC50)
# Protocol: as §1, §2, §3, §4, §5
# LXFA NCI-H1975 = conditions: Homo sapiens, 72 h; cell line LXFA NCI-H1975; three days of treatment; read-out: IC (abs. IC50)
# Protocol: as §1, §2, §3, §4, §5
# MAXFLB MCF7 (ER +) = conditions: Homo sapiens, 72 h; cell line MAXFLB MCF7 (ER +); three days of treatment; read-out: IC (abs. IC50)
# Protocol: as §1, §2, §3, §4, §5
# UXF MFE-319 = conditions: 72 h; cell line UXF MFE-319; three days of treatment; read-out: IC (abs. IC50)
# Protocol: as §1, §2, §3, §4, §5
# BXF 5637 = conditions: 72 h; cell line BXF 5637; three days of treatment; read-out: IC (abs. IC50)
# Protocol: as §1, §2, §3, §4, §5
# LYXFNH U-937 = conditions: Homo sapiens, 72 h; cell line LYXFNH U-937; three days of treatment; read-out: IC (abs. IC50)
# Protocol: as §1, §2, §3, §4, §5
# LEXFCM K-562 = conditions: Homo sapiens, K562, 72 h; cell line LEXFCM K-562; three days of treatment; read-out: IC (abs. IC50)
# Protocol: as §1, §2, §3, §4, §5
# LXFE Calu-1 = conditions: Homo sapiens, 72 h; cell line LXFE Calu-1; three days of treatment; read-out: IC (abs. IC50)
# Protocol: as §1, §2, §3, §4, §5
# PAXF BxPC-3 = conditions: Homo sapiens, 72 h; cell line PAXF BxPC-3; three days of treatment; read-out: IC (abs. IC50)
# Protocol: as §1, §2, §3, §4, §5
# MAXFTN BT-549 = conditions: Homo sapiens, 72 h; cell line MAXFTN BT-549; three days of treatment; read-out: IC (abs. IC50)
# Protocol: as §1, §2, §3, §4, §5
# GXA MKN45 = conditions: Homo sapiens, MKN-45, 72 h; cell line GXA MKN45; three days of treatment; read-out: IC (abs. IC50)
# Protocol: as §1, §2, §3, §4, §5
# CXF Caco-2 = conditions: Homo sapiens, 72 h; cell line CXF Caco-2; three days of treatment; read-out: IC (abs. IC50)
# Protocol: as §1, §2, §3, §4, §5
# UXF EFE-184 = conditions: Homo sapiens, 72 h; cell line UXF EFE-184; three days of treatment; read-out: IC (abs. IC50)
# Protocol: as §1, §2, §3, §4, §5
# MAXFLB 147D (ER +) = conditions: 72 h; cell line MAXFLB 147D (ER +); three days of treatment; read-out: IC (abs. IC50)
# Protocol: as §1, §2, §3, §4, §5
# MAXFHER BT-474 = conditions: Homo sapiens, 72 h; cell line MAXFHER BT-474; three days of treatment; read-out: IC (abs. IC50)
# Protocol: as §1, §2, §3, §4, §5
compound,measurement,setting,value
CN1CCN(c2ccc(Nc3ncc4cc(C(=O)N(C)C)n(C56CC(C5)C6)c4n3)cc2)CC1 [SPV113],IC50,LIXFH Hep G2,124 nM
same,IC50,LEXFAL MOLT-4,567 nM
same,IC50,MMXF U-266,655 nM
same,IC50,PRXF VCap,15 nM
same,IC50,LXFA NCI-H1975,122 nM
same,IC50,MAXFLB MCF7 (ER +),173 nM
same,IC50,UXF MFE-319,667 nM
same,IC50,BXF 5637,476 nM
same,IC50,LYXFNH U-937,≤ 10 nM
same,IC50,LEXFCM K-562,1150 nM
same,IC50,LXFE Calu-1,1560 nM
same,IC50,PAXF BxPC-3,193 nM
same,IC50,MAXFTN BT-549,713 nM
same,IC50,GXA MKN45,1080 nM
same,IC50,CXF Caco-2,≥ 100 µM
same,IC50,UXF EFE-184,906 nM
same,IC50,MAXFLB 147D (ER +),3.47 µM
same,IC50,MAXFHER BT-474,802 nM
